Source: publication PMC5458078, “Global mapping of CARM1 substrates defines enzyme specificity and substrate recognition” (Nature Communications, 2017)

These sequences were tested on CARM1 (assay: 96-spot peptide array in vitro methylation, autoradiography). Conditions: 96-spot array, 3H-SAM, 30 °C.
Type: biochemical, human
Text: Having corroborated the ability of CARM1 to methylate most of the detected substrates, we designed an additional 96-spot peptide array (Fig. 2e and Supplementary Data 3) with two purposes in mind: (1) to examine the significance of surrounding amino acids on CARM1-directed arginine dimethylation, particularly those mutated in human cancers; and (2) to measure PRMT specificity towards respective substrates. The selected sequences encompassed a mixture herein identified and predicted CARM1 substrates (in light blue) and representative cancer-relevant substrates, accompanied by the sequences harbouring mutations detected in human patients[38] (in blue). We also arbitrarily mutated the recognition sequence surrounding R1064 on BAF155 (ref. [20])—the known CARM1 methylation site—to assess the significance of surrounding amino-acid residues to CARM1 activity (four sequence in dark blue). The array also featured 17 known substrates of PRMT1 (in grey), 10 substrates of PRMT5 (in purple) and 4 substrates of PRMT6 (in pink) as positive controls for these enzymes.
The FL and N-terminal domain-deleted version of human CARM1 cDNAs, and other PRMT FL cDNAs were cloned into pFN21K Halo Tag CMV Flexi mammalian expression vector (Promega, Madison, WI) using the unique Sgfl and Pmel site[55]. To express the protein, DNA constructs were transiently transfected into HEK293T CARM1 KO cells in 15 cm dishes using transIT-LT1 reagent (Mirus Bio, Madison, WI) according to the manufacturer's protocol. Proteins were allowed to express for 48 h. Cell pellets were then collected and lysed in lysis buffer (50 mM HEPES, pH 7.5, 150 mM NaCl, 0.005% NP-40, 0.5 mM EDTA, supplemented with 1 × protease inhibitor cocktail before use). The cells were sonicated on ice using a Branson Sonifier 450 with a microtip at 35% amplitude (10 s on, 30 s off, 6 cycles). The crude lysate was cleared by centrifugation (15,000 r.p.m., 4 °C, 20 min). The cleared lysate was then mixed with pre-washed Halo Link resin (60 μl resin for a 15 cm dish) and incubated with rotation at room temperature for 2 h. The resin was then washed twice with lysis buffer, once with lysis buffer supplemented with 1 M urea and twice with lysis buffer. The recombinant proteins were then eluted with cleavage buffer (lysis buffer supplemented with 1 mM DTT and 20 μg ml^−1 TEV protease) with rotation at room temperature for 2 h. The resin was centrifuged at 3,000 r.p.m. for 5 min, and the supernatant containing the cleaved protein was collected and protein concentration was determined using the Bradford assay (Thermo Scientific, Rockford, IL). Protein purity was assessed by running SDS–PAGE and Coomassie Blue staining.
Purified recombinant enzyme and substrates were incubated in methylation buffer (50 mM Tris-HCl, pH 8.0, 100 mM NaCl and 0.5 mM EDTA) for 1–4 h at 30 °C in the presence of 1 μl radioactive S-adenosyl-L-[methyl-^3H] methionine. The reaction was stopped by adding 5 × SDS sample buffer and boiling at 99 °C for 5 min. Proteins were resolved by SDS–PAGE. The gel was stained with Coomassie Brilliant Blue (Coomassie Brilliant Blue R-250 0.05% w/v: methanol 50%: acetic acid 10%: H2O 40%) followed by de-staining with dye-free buffer. Fixed gel was then soaked with amplify (GE Healthcare, Waukesha, WI) with gentle shaking at room temperature for 30 min before drying on a Whatman paper at 80 °C and exposing to an X-ray film in dark at −80 °C. Protein methylation was detected by autoradiography.
For methylation assays using the peptide array, 16 or 20 μg purified recombinant CARM1 or same molar concentration of the other PRMTs (for 96-spot and 192-spot arrays, respectively) was mixed well with 40 μl radioactive S-adenosyl-L-[methyl-^3H] methionine, 80 μl 5 × methylation buffer and ddH2O to achieve a final volume of 200 or 400 μl reaction (for 96-spot and 192-spot arrays, respectively). The Celluspot peptide arrays were customized and produced by Intavis Bioanalytical Instruments, Germany. […]
With YGSQTPQRYQMTMQG [ARID1A (R429) P431Q] the “Methylation by CARM1 of mutated peptide vs wild-type sequence” value (shortened to “Methylation … vs wild-type sequence”) was “significantly reduced methylation by CARM1”.
With VQSLCDTRFHFQQRA [TET2 (R680) G678D] the “Methylation … vs wild-type sequence” value was “significantly reduced methylation by CARM1”.
DPYRPVRLQMQKLPT [MED12 (R1862) P1864Q] was tested, and the “Methylation … vs wild-type sequence” value was “significantly reduced methylation by CARM1”.
For PGNILGPRVALTAPN [BAF155 (R1064) P1066A], the “Methylation … vs wild-type sequence” value was “nearly abolished methylation by CARM1”.
In the case of YGSQTPQRCPMTMQG [ARID1A (R429) Y430C], the “Methylation … vs wild-type sequence” value is reported as “significantly reduced methylation by CARM1”.
PGNILAPRVPLTAPN [BAF155 (R1064) G1062A] was tested, and the “Methylation … vs wild-type sequence” value was “nearly abolished methylation by CARM1”.
For PGNILGARVPLTAPN [BAF155 (R1064) P1063A], the “Methylation … vs wild-type sequence” value was “nearly abolished methylation by CARM1”.
